Assay results: ChEMBL document CHEMBL2046380, “Synthesis and structure-activity relationship of disubstituted benzamides as a novel class of antimalarial agents” (Bioorg Med Chem Lett, 2012)

How the values were obtained:
Plasmodium falciparum [1] = experiment: Antimalarial activity against […] incubated for 72 hrs by DNA staining based MARK1 growth inhibition assay; assay type: functional, organism-based
Plasmodium falciparum [2] = experiment: Antimalarial activity against chloroquine-sensitive Plasmodium falciparum 3D7 incubated for 72 hrs by DNA staining based MAR3D7 growth inhibition assay; assay type: functional, organism-based; details: 3D7, 72 h
HepG2 = experiment: Cytotoxicity against human HepG2 cells after 72 hrs by […] CellTiterGlo reagent assay; assay type: cell-based; details: HepG2, 72 h
Raji = experiment: Cytotoxicity against human Raji cells after 72 hrs by […] CellTiterGlo reagent assay; assay type: cell-based
BJ = experiment: Cytotoxicity against human BJ cells after 72 hrs by […] CellTiterGlo reagent assay; assay type: cell-based
HEK293 = experiment: Cytotoxicity against human HEK293 cells after 72 hrs by […] CellTiterGlo reagent assay; assay type: cell-based; details: HEK293, 72 h

| SMILES | EC50 (Plasmodium falciparum [1]) | EC50 (Plasmodium falciparum [2]) | EC50 (HepG2) | EC50 (Raji) | EC50 (BJ) | EC50 (HEK293) |
| --- | --- | --- | --- | --- | --- | --- |
| CC(C)N(Cc1cccc(OCCCCCC(=O)O)c1)C(=O)c1ccc(-c2cc3ccccc3n2S(=O)(=O)c2ccccc2)cc1 | > 15 µM | > 15 µM | > 26 µM | > 26 µM | > 26 µM | > 26 µM |
| CC(C)N(Cc1cccc(OCCCCCC(=O)O)c1)C(=O)c1ccc(-c2c[nH]c3ccccc23)cc1 | > 15 µM | > 15 µM | > 26 µM | > 26 µM | > 26 µM | > 26 µM |
| CC(C)N(Cc1cccc(OCCCCCC(=O)O)c1)C(=O)c1ccc(-c2cccc(CC#N)c2)cc1 | > 15 µM | > 15 µM | > 26 µM | > 26 µM | > 26 µM | > 26 µM |
| CCOC(=O)CCCCCOc1cccc(CN(C(=O)c2ccccc2)C(C)C)c1 | > 12.5 µM | > 15 µM | > 26 µM | > 26 µM | > 26 µM | > 26 µM |
| CCOC(=O)CCCCCOc1cccc(CN(C(=O)c2ccc(-c3cccc4ccccc34)cc2)C(C)C)c1 | > 15 µM | > 15 µM | > 26 µM | > 26 µM | > 26 µM | > 26 µM |
| CCOC(=O)CCCCCOc1cccc(CN(C(=O)c2ccc(-c3ccc4ccccc4c3)cc2)C(C)C)c1 | > 15 µM | > 15 µM | > 26 µM | > 26 µM | > 26 µM | > 26 µM |
| CCOC(=O)CCCCCOc1cccc(CN(C(=O)c2ccc(-c3cccc(-c4ccccc4)c3)cc2)C(C)C)c1 | > 15 µM | > 15 µM | > 26 µM | > 26 µM | > 26 µM | > 26 µM |
| CCOC(=O)CCCCCOc1cccc(CN(C(=O)c2ccc(-c3cccc(C(C)=O)c3)cc2)C(C)C)c1 | > 15 µM | > 1.5 µM | > 26 µM | > 26 µM | > 26 µM | > 26 µM |
| CCOC(=O)CCCCCOc1cccc(CN(C(=O)c2ccc(-c3cccc(OCC(C)C)c3)cc2)C(C)C)c1 | > 15 µM | > 15 µM | > 26 µM | > 26 µM | > 26 µM | > 26 µM |
| CCOC(=O)CCCCCOc1cccc(CN(C(=O)c2ccc(-c3cccc(OC(C)C)c3)cc2)C(C)C)c1 | > 15 µM | > 15 µM | > 26 µM | > 26 µM | > 26 µM | > 26 µM |
| CCOC(=O)CCCCCOc1cccc(CN(C(=O)c2ccc(-c3cccc(Oc4ccccc4)c3)cc2)C(C)C)c1 | > 10.9 µM | > 10.9 µM | > 26 µM | > 19.7 µM | > 19.7 µM | > 19.7 µM |
| CCOC(=O)CCCCCOc1cccc(CN(C(=O)c2ccc(-c3cccc(OCc4ccccc4)c3)cc2)C(C)C)c1 | > 15 µM | > 15 µM | > 26 µM | > 26 µM | > 26 µM | > 26 µM |
| CCOC(=O)CCCCCOc1cccc(CN(C(=O)c2ccc(-c3cccc(OC)c3)cc2)C(C)C)c1 | > 11.7 µM | > 11.7 µM | > 21.1 µM | > 21 µM | > 21.1 µM | > 21.1 µM |
| CCOC(=O)CCCCCOc1cccc(CN(C(=O)c2ccc(-c3cccc(OCC)c3)cc2)C(C)C)c1 | > 12.4 µM | > 12.4 µM | > 22.4 µM | > 22.4 µM | > 22.4 µM | > 22.4 µM |
| CCOC(=O)CCCCCOc1cccc(CN(C(=O)c2ccc(-c3ccc4c(c3)OCCO4)cc2)C(C)C)c1 | > 13.5 µM | > 13.5 µM | > 24.5 µM | > 24.5 µM | > 24.5 µM | > 24.5 µM |
| CCOC(=O)CCCCCOc1cccc(CN(C(=O)c2ccc(-c3cc(OC)cc(OC)c3)cc2)C(C)C)c1 | > 15 µM | > 15 µM | > 26 µM | > 26 µM | > 26 µM | > 26 µM |
| CCOC(=O)CCCCCOc1cccc(CN(C(=O)c2ccc(-c3cccc(O)c3)cc2)C(C)C)c1 | > 15 µM | > 15 µM | > 26 µM | > 26 µM | > 26 µM | > 26 µM |
| CCOC(=O)CCCCCOc1cccc(CN(C(=O)c2ccc(-c3cccc(OC(F)(F)F)c3)cc2)C(C)C)c1 | > 15 µM | > 15 µM | > 26 µM | > 26 µM | > 26 µM | > 26 µM |
| CCOC(=O)CCCCCOc1cccc(CN(C(=O)c2ccc(-c3cc(F)cc(OC)c3)cc2)C(C)C)c1 | > 15 µM | > 15 µM | > 26 µM | > 26 µM | > 26 µM | > 26 µM |
| CCOC(=O)CCCCCOc1cccc(CN(C(=O)c2ccc(-c3cc(OC)ccc3F)cc2)C(C)C)c1 | > 15 µM | > 15 µM | > 26 µM | > 26 µM | > 26 µM | > 26 µM |
| CCOC(=O)CCCCCOc1cccc(CN(C(=O)c2ccc(-c3cc(C(F)(F)F)cc(C(F)(F)F)c3)cc2)C(C)C)c1 | > 15 µM | > 15 µM | > 26 µM | > 26 µM | > 26 µM | > 26 µM |
| CCOC(=O)CCCCCOc1cccc(CN(C(=O)c2ccc(-c3cccc(F)c3)cc2)C(C)C)c1 | > 15 µM | > 15 µM | > 26 µM | > 26 µM | > 26 µM | > 26 µM |
| CCOC(=O)CCCCCOc1cccc(CN(C(=O)c2ccc(-c3cccc(Br)c3)cc2)C(C)C)c1 | > 15 µM | > 15 µM | > 26 µM | > 26 µM | > 26 µM | > 26 µM |
| CCOC(=O)CCCCCOc1cccc(CN(C(=O)c2ccc(-c3ccc(Cl)c(Cl)c3)cc2)C(C)C)c1 | > 15 µM | > 15 µM | > 26 µM | > 26 µM | > 26 µM | > 26 µM |
| CCOC(=O)CCCCCOc1cccc(CN(C(=O)c2ccc(-c3cccc(Cl)c3)cc2)C(C)C)c1 | > 10.2 µM | > 10.2 µM | > 18.5 µM | > 18.5 µM | > 18.5 µM | > 18.5 µM |
| CCOC(=O)CCCCCOc1cccc(CN(C(=O)c2ccc(-c3cccc(S(C)(=O)=O)c3)cc2)C(C)C)c1 | > 15 µM | > 15 µM | > 26 µM | > 26 µM | > 26 µM | > 26 µM |
| CCOC(=O)CCCCCOc1cccc(CN(C(=O)c2ccc(-c3cccc(CC(=O)O)c3)cc2)C(C)C)c1 | > 15 µM | > 15 µM | > 26 µM | > 26 µM | > 26 µM | > 26 µM |
| CCOC(=O)CCCCCOc1cccc(CN(C(=O)c2ccc(-c3cccc(N(C)C)c3)cc2)C(C)C)c1 | > 15 µM | > 15 µM | > 26 µM | > 26 µM | > 26 µM | > 26 µM |
| CCOC(=O)CCCCCOc1cccc(CN(C(=O)c2ccc(-c3cccc(NC(C)=O)c3)cc2)C(C)C)c1 | > 15 µM | > 15 µM | > 26 µM | > 26 µM | > 26 µM | > 26 µM |
| CCOC(=O)CCCCCOc1cccc(CN(C(=O)c2ccc(-c3ccncc3)cc2)C(C)C)c1 | 0.0008 µM | < 0.0008 µM | > 26 µM | > 26 µM | > 26 µM | > 26 µM |
